Results on three compounds are retold here after patent publication US10835624B2, “Compounds for imaging Tau protein aggregates” (AC IMMUNE S.A., priority 2016, dated 2020).

Marks after values point to notes of the source that are not given here.

One series has as its target T1, MAO A (Homo sapiens, UniProt P21397).
T1 construct: 20 μg of human brain homogenate (without AD pathology); from tissue; host or cells: human brain homogenate without AD pathology (healthy control)
T1 sequence (P21397 1-527): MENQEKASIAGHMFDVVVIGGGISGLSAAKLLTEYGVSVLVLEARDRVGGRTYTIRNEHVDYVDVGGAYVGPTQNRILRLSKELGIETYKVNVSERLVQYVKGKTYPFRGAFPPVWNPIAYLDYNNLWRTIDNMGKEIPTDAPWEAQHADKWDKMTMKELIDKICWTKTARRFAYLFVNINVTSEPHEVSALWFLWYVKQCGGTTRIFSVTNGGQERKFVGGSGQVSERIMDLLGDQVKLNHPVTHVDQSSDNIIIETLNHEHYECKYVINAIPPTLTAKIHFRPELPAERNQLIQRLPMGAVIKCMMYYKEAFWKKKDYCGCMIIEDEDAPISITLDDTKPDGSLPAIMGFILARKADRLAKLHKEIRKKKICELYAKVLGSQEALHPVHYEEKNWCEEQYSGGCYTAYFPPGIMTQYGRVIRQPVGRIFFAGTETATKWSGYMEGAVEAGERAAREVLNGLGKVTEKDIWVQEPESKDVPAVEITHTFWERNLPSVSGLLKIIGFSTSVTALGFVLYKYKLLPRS
Nature of the series: MAO A FEH competition assay in human HC brain homogenate. In kind it is binding. Further details: Low affinity to MAO A (IC50 in HC homogenate): key: −: poor; ∘: moderate; +: good; ++: very good; +++: excellent. The conditions noted are these: for IC50: human healthy control brain homogenate, FEH competition. As to the method: 20 μg of human brain homogenate (without AD pathology) was incubated with a dilution series of each test compound (1000 to 0.06 nM) in the presence of 800 Bq of ^18F-labeled MAO-A binder ([^18F]fluoroethyl harmine, FEH). The samples were shaken at 110 rpm for 45 min at 37° C. Samples were then filtered through GF/B 96 well filter plates and washed twice with 300 μL assay buffer (PBS containing 0.1% BSA and 2% DMSO). Thereafter, filter plates were sealed and a Fuji Film Imaging Plate (BAS-SR2025) was placed on top. The imaging plate was analyzed after overnight exposition using a Fuji Film BAS-5000. Non-specific signal was determined with samples containing ^18F-labeled FEH in the presence of assay buffer without brain substrate and competitor. […] The unblocked ^18F-labeled FEH signal was defined as total binding. IC50 values were calculated by Prism V6 (GraphPad) setting total binding to 100%.

For series [1], the target named is T2, Monoamine oxidase A (MAO A) (Homo sapiens, UniProt P21397).
T2 sequence (P21397 1-527): T1 sequence (P21397 1-527)
The conditions noted are these: Vermeiren et al. 2015; cited from earlier work.

The target in another series is T3, MAO B (Homo sapiens, UniProt P27338).
T3 construct: 20 μg of human brain homogenate (without AD pathology); from tissue; host or cells: human brain homogenate without AD pathology (healthy control)
T3 sequence (P27338 1-520): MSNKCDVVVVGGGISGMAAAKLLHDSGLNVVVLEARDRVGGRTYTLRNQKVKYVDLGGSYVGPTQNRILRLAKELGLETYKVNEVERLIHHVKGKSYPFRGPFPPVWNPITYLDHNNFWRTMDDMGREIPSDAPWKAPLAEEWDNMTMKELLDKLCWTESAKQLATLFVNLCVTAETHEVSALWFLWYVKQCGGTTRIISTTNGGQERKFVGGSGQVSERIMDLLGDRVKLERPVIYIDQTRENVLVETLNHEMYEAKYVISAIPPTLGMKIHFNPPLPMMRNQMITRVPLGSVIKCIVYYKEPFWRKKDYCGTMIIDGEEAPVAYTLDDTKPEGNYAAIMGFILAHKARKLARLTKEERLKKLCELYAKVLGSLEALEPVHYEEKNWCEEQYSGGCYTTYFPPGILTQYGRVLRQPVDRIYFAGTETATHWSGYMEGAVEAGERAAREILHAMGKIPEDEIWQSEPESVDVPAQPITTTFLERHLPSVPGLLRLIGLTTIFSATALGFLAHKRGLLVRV
Nature of the series: MAO B 18F-fluoro deprenyl competition assay in human HC brain homogenate. The format is binding. Details: Low affinity to MAO B (IC50 in HC homogenate): key: −: poor; ∘: moderate; +: good; ++: very good; +++: excellent. Here is the method:
The samples were shaken at 110 rpm for 45 min at 37° C. Samples were then filtered through GF/B 96 well filter plates and washed twice with 300 μL assay buffer (PBS containing 0.1% BSA and 2% DMSO). Thereafter, filter plates were sealed and a Fuji Film Imaging Plate (BAS-SR2025) was placed on top. The imaging plate was analyzed after overnight exposition using a Fuji Film BAS-5000. […] IC50 values were calculated by Prism V6 (GraphPad) setting total binding to 100%.

Series [2] relates to Tau (AD brain homogenate vs HC brain homogenate). Nature of the series: Tracer signal in AD brain homogenate vs healthy control brain homogenate. In kind it is binding, human. Further details: High signal to noise (AD brain homogenate/HC brain homogenate) / High signal to noise (further homogenates): key to the marks not given beside the values. The conditions noted are these: for Ratio of tracer signal in AD brain homogenates/signal in HC brain homogenates: further homogenates.

The test system of series [3] is Tau in human brain sections (AD, PSP, PiD, HC). Nature of the series: Autoradiography in human brain slices. In kind it is binding. As to the method: 18 micron thick frozen human brain slices and 6 micron thick human FFPE brain slices were examined via autoradiography. Brain sections were equilibrated for at least 1 h in 1×PBS solution prior to use in the experiment. Each brain section was covered with a solution of the ^18F-labeled tracer (200 Bq/μl, 500 μl) in 1×PBS. For blocking experiments with the corresponding ^19F-compound, an excess of the blocking compound (10 μM) was mixed with the ^18F-compound. The brain sections were allowed to incubate with the tracer solution at room temperature for 1 h, drained afterwards and placed in a slide holder. The slides were then washed sequentially with 1×PBS for 1 min; 70% EtOH in 1×PBS for 2 min; 30% EtOH in 1×PBS for 2 min; and 1×PBS for 1 min. The slides were allowed to air-dry before being placed on Fuji imaging plates […] for overnight exposure. The imaging plates were scanned and the signal was measured using Fuji software to produce an autoradiographic image of the brain section.

Series [4] relates to Tau (AD brain vs mouse brain homogenate). Nature of the series: Tracer signal in AD brain vs mouse brain homogenate. Further details: High signal to noise (AD brain/mouse brain homogenate): key: −: poor; ∘: moderate; +: good; ++: very good; +++: excellent. In kind it is binding, human / mouse.
A further series concerns Tau pathology. Nature of the series: Human imaging study (dynamic PET). The format is in vivo. As to the method: In a clinical trial, subjects with AD or PSP as well as non-demented controls (NDC) underwent dynamic PET imaging for over 3 h following 370 MBq bolus injection of ^18F-3a.
Setting [5] is: grade, non-radioactive derivatives.

A word on the IC50: it is the concentration that gives 50% inhibition. What is called Kd is the constant that tells how readily two partners part at equilibrium. Regarding `[18F]c1ccc(-c2ccc3c(c2)[nH]c2ccncc23)cn1` [^18F-1], the half-maximal inhibitory concentration (IC50) on MAO A worked out at 5 nM; on MAO B it was 170 nM. Besides, in series [1], the Kd was 1.5 nM.
In the case of `[18F]c1cc(-c2ccc3c(n2)[nH]c2ccncc23)ccn1` [^18F-3a], the “Fold higher signal to noise ratio than 18F-1” value in series [2] (AD brain homogenate vs HC brain homogenate) is 5.2 fold. Further, the “Fold higher signal to noise ratio than 18F-1” value in series [2] (further AD brain homogenates vs HC brain homogenate) is 8.2-13.5 fold. Also, in series [2] (first of 3 values), the “Ratio of tracer signal in AD brain homogenates/signal in HC brain homogenates” value came out at 14.0. Besides, in series [2] (second of 3 values), the “Ratio of tracer signal in AD brain homogenates/signal in HC brain homogenates” value is reported as 17.9. Moreover, the “Ratio of tracer signal in AD brain homogenates/signal in HC brain homogenates” value in series [2] (third of 3 values) is 33.8. Also, in series [2] (grade, 3 different AD brain homogenates), the “High signal to noise (further homogenates)” value was “+++”. For the same compound, the “High signal to noise (AD brain homogenate/HC brain homogenate)” value in series [2] (grade, 18F tracers) is recorded as “++”. Also, in series [3], the “Autoradiography signal in PSP brain sections” value is “strong signal”, the “Autoradiography signal in PiD brain sections” value is given as “strong signal” and the “Autoradiography signal in healthy control (HC) sections” value is “no specific signal”. Also, in series [3] (blockable with excess cold compound), the “Autoradiography signal in AD brain sections” value was “strong punctated staining”. In addition, in series [3] (grade, in house data), the “Binding to AD brain (Braak stage 1/3), autoradiography on human brain slices” value is “+++^a)”; the “Binding to AD brain (Braak stage 5/6), autoradiography on human brain slices” value was “+++^a)”; the “Binding to PSP, autoradiography on human brain slices” value is recorded as “+++^a)”; the “Binding to PiD, autoradiography on human brain slices” value is “+++^a)”. For the same compound, the “Ratio of tracer signal in AD brain/signal in mouse brain homogenate” value in series [4] (18F tracers) is 9.2^a. Also, the “Fold higher signal to noise ratio than 18F-1” value in series [4] (AD brain homogenate vs whole mouse brain homogenate) stood at 4.2 fold. The “High signal to noise (AD brain/mouse brain homogenate)” value in series [4] (grade) is “++”. Besides, at MAO A (HC brain homogenate), the “Fold higher MAO A IC50 than compound 18F-1” value was 220 fold and the “Fold higher MAO A IC50 than compound 18F-2” value stood at 11 fold. In addition, the “Low affinity to MAO A (IC50 in HC homogenate)” value on MAO A (setting [5]) is on record as “+++”. Besides, at MAO A, the IC50 turned out to be 1100 nM. Besides, in the series on Tau pathology (370 MBq bolus injection, PET), the “Brain uptake in human subjects” value is reported as “good” and the “Washout from non-target brain regions in human subjects” value is on record as “fast”. Moreover, in the series with Tau pathology (AD subjects), the “Uptake in temporal, parietal and frontal lobes” value is “focal asymmetric uptake”. Further, the “Uptake in globus pallidus and substantia nigra” value with Tau pathology (PSP subjects) is “focal increased uptake”. For the same compound, the “Uptake in choroid plexus, basal ganglia, striatum, amygdala, meninges or other off-target regions” value in the series with Tau pathology (non-demented controls (NDC)) is on record as “no increased uptake”. Further, the IC50 on MAO B is above 1000 nM. Besides, on MAO B (HC brain homogenate), the “Fold higher MAO B IC50 than compound 18F-1” value is listed as above 5 fold. Moreover, the “Low affinity to MAO B (IC50 in HC homogenate)” value at MAO B (setting [5]) is reported as “+++”.
With `[18F]c1ccc(-c2ccc3c(n2)[nH]c2ccncc23)cn1` [^18F-2], the IC50 on MAO A was 100 nM; on MAO B, above 1000 nM.
